In patent US4062862A, “5-Benzyl-2-oxazolidone derivatives and a process for producing the same” (Nippon Chemiphar Co., Ltd., priority 1975, dated 1977):

What was measured:
[1] = system: mice; assay: Muscular relaxing effect, Rotarod Method (R.R), oral, mice; format: in vivo, dd Male mice; details: Mus musculus; for responders at 500 mg/kg: read-out: Inhibition percent of the central muscular relaxing effect, R.R (Rotarod Method)
Method: (§1) dd Male mice weighing 18 to 22 g, one group consisting of 10 animals, were orally given the compounds (I) to (V) as indicated below suspended in 0.2% carboxymethylcellulose solution in a dose of 0.25ml/10g-body weight. Mephenesin was used as active placebo.
Mice were placed on Rotar Load (made by Natsume Seisakusho Co., Ltd.) having a diameter of 3 cm rotating at a speed of 10 rpm and falling (occurring within 3 minutes) was observed.

[2] = system: mice; assay: Muscular relaxing effect, Traction Test (T.T), oral, mice; format: in vivo, dd Male mice; details: Mus musculus; for responders at 500 mg/kg: read-out: Inhibition percent of the central muscular relaxing effect, T.T (Traction Test)
Method: as §1

[3] = system: mice; assay: Muscular relaxing effect, Inclined Plane Test (I.P), oral, mice; format: in vivo, dd Male mice; details: Mus musculus; for responders at 500 mg/kg: read-out: Inhibition percent of the central muscular relaxing effect, I.P (Inclined Plane Test)
Method: as §1
Mice were placed on veneer inclined at an angle of 30° and on wire-netting inclined at an angle of 60° of which one division is 5 mm square, and mice sliding down were observed as positive, in comparison with normal behavior.

[4] = system: mice; assay: Muscular relaxing effect, Righting Reflex Test (R.r), oral, mice; format: in vivo, dd Male mice; details: Mus musculus; for responders at 500 mg/kg: read-out: Inhibition percent of the central muscular relaxing effect, R.r (Righting Reflex Test)
Method: as §1

[5] = system: mice; assay: Muscular relaxing effect, Pinna Reflex Test (P.r), oral, mice; format: in vivo, dd Male mice; details: Mus musculus; for responders at 500 mg/kg: read-out: Inhibition percent of the central muscular relaxing effect, P.r (Pinna Reflex Test)
Method: as §1
Pinna reflex was observed by using mandolin wire for 1/4 injection syringe.

[6] = system: mice; assay: Muscular relaxing effect, Corneal Reflex Test (C.r), oral, mice; format: in vivo, dd Male mice; details: Mus musculus; for responders at 500 mg/kg: read-out: Inhibition percent of the central muscular relaxing effect, C.r (Corneal Reflex Test)
Method: as §1
Corneal reflex was observed by using mandolin wire for 1/4 injection syringe.

[7] = system: carrageenan-induced edema in rats; assay: Antiinflammatory effect on carrageenan-induced edema; format: in vivo, Wistar male rats
Method: […] One hour after the administration of the test compounds, the hind paw was given a subcutaneous injection of 0.05ml of 0.5% carrageenan saline solution, and volume of the hind paw was measured at 1, 2, 3, 4, 5 and 6 hours after the injection of carrageenan by a volume differential meter. Inhibitory percent was calculated based on the swelling in the control. Phenybutazone was used as active placebo.

[8] = Table 1, oral, mice, maximum response 15-180 min, Litchfield Wilcoxon

CCc1ccccc1CC1CNC(=O)O1 (stereo not shown) [Compound VI, 5-(o-ethylbenzyl)-2-oxazolidone]
responders at 500 mg/kg ([1]; Table 2, 500 mg/kg, oral, mice): 60% | responders at 500 mg/kg ([2]; Table 2, 500 mg/kg, oral, mice): 40% | responders at 500 mg/kg ([3]; Table 2, 500 mg/kg, oral, mice): 50% | responders at 500 mg/kg ([4]; Table 2, 500 mg/kg, oral, mice): 10% | responders at 500 mg/kg ([5]; Table 2, 500 mg/kg, oral, mice): 10% | responders at 500 mg/kg ([6]; Table 2, 500 mg/kg, oral, mice): 0% | Inhibitory per cent, carrageenan-induced edema, 1 hr ([7]; Table 6, 100 mg/kg oral): 27.8 per cent | Inhibitory per cent, carrageenan-induced edema, 2 hrs. ([7]; Table 6, 100 mg/kg oral): 36.3 per cent | Inhibitory per cent, carrageenan-induced edema, 3 hrs. ([7]; Table 6, 100 mg/kg oral): 53.6 per cent | Inhibitory per cent, carrageenan-induced edema, 4 hrs. ([7]; Table 6, 100 mg/kg oral): 28.9 per cent | Inhibitory per cent, carrageenan-induced edema, 5 hrs. ([7]; Table 6, 100 mg/kg oral): 22.0 per cent | Inhibitory per cent, carrageenan-induced edema, 6 hrs. ([7]; Table 6, 100 mg/kg oral): 17.4 per cent

C=CCOc1ccccc1CC1CNC(=O)O1 (stereo not shown) [Compound X, 5-(o-allyloxybenzyl)-2-oxazolidone]
responders at 500 mg/kg ([1]; Table 2, 500 mg/kg, oral, mice): 80% | responders at 500 mg/kg ([2]; Table 2, 500 mg/kg, oral, mice): 40% | responders at 500 mg/kg ([3]; Table 2, 500 mg/kg, oral, mice): 40% | responders at 500 mg/kg ([4]; Table 2, 500 mg/kg, oral, mice): 30% | responders at 500 mg/kg ([5]; Table 2, 500 mg/kg, oral, mice): 40% | responders at 500 mg/kg ([6]; Table 2, 500 mg/kg, oral, mice): 0%

O=C1NCC(Cc2ccccc2-c2ccccc2)O1 (stereo not shown) [Compound XIV, 5-(o-phenylbenzyl)-2-oxazolidone]
Inhibitory per cent, carrageenan-induced edema, 1 hr ([7]; Table 6, 100 mg/kg oral): 12.9 per cent | Inhibitory per cent, carrageenan-induced edema, 2 hrs. ([7]; Table 6, 100 mg/kg oral): 35.2 per cent | Inhibitory per cent, carrageenan-induced edema, 3 hrs. ([7]; Table 6, 100 mg/kg oral): 40.0 per cent | Inhibitory per cent, carrageenan-induced edema, 4 hrs. ([7]; Table 6, 100 mg/kg oral): 15.6 per cent | Inhibitory per cent, carrageenan-induced edema, 5 hrs. ([7]; Table 6, 100 mg/kg oral): 9.1 per cent

O=C1NCC(Cc2ccccc2Oc2ccccc2)O1 (stereo not shown) [Compound XV, 5-(o-phenoxybenzyl)-2-oxazolidone]
Inhibitory per cent, carrageenan-induced edema, 1 hr ([7]; Table 6, 100 mg/kg oral): 59.5 per cent | Inhibitory per cent, carrageenan-induced edema, 2 hrs. ([7]; Table 6, 100 mg/kg oral): 57.1 per cent | Inhibitory per cent, carrageenan-induced edema, 3 hrs. ([7]; Table 6, 100 mg/kg oral): 59.9 per cent | Inhibitory per cent, carrageenan-induced edema, 4 hrs. ([7]; Table 6, 100 mg/kg oral): 30.8 per cent | Inhibitory per cent, carrageenan-induced edema, 5 hrs. ([7]; Table 6, 100 mg/kg oral): 26.1 per cent | Inhibitory per cent, carrageenan-induced edema, 6 hrs. ([7]; Table 6, 100 mg/kg oral): 23.2 per cent

NC(=O)OCCCc1ccccc1 [GP, γ-phenylpropylcarbamate, reference compound]
responders at 500 mg/kg ([1]; po): 60% | responders at 500 mg/kg ([2]; po): 40% | responders at 500 mg/kg ([3]; po): 30% | responders at 500 mg/kg ([4]; po): 0% | responders at 500 mg/kg ([5]; po): 10% | responders at 500 mg/kg ([6]; po): 0%

Cc1ccccc1OCC(O)CO (stereo not shown) [Mephenesin, reference compound]
ED50 [1, 8]: 268 mg/kg | responders at 500 mg/kg ([1]; Table 2, 500 mg/kg, oral, mice): 80% | ED50 [2, 8]: 460 mg/kg | responders at 500 mg/kg ([2]; Table 2, 500 mg/kg, oral, mice): 40% | ED50 [3, 8]: 470 mg/kg | responders at 500 mg/kg ([3]; Table 2, 500 mg/kg, oral, mice): 60% | ED50 [4, 8]: 640 mg/kg | responders at 500 mg/kg ([4]; Table 2, 500 mg/kg, oral, mice): 20% | ED50 [5, 8]: 420 mg/kg | responders at 500 mg/kg ([5]; Table 2, 500 mg/kg, oral, mice): 20% | ED50 [6, 8]: 680 mg/kg | responders at 500 mg/kg ([6]; Table 2, 500 mg/kg, oral, mice): 0%

CCCCC1C(=O)N(c2ccccc2)N(c2ccccc2)C1=O [Phenylbutazone, reference compound]
Inhibitory per cent, carrageenan-induced edema, 3 hrs. ([7]; Table 5, 200 mg/kg oral): 76.6 per cent | Inhibitory per cent, carrageenan-induced edema, 6 hrs. ([7]; Table 5, 200 mg/kg oral): 45.1 per cent | Inhibitory per cent, carrageenan-induced edema, 1 hr ([7]; Table 6, 100 mg/kg oral): 59.1 per cent | Inhibitory per cent, carrageenan-induced edema, 2 hrs. ([7]; Table 6, 100 mg/kg oral): 54.6 per cent | Inhibitory per cent, carrageenan-induced edema, 3 hrs. ([7]; Table 6, 100 mg/kg oral): 59.7 per cent | Inhibitory per cent, carrageenan-induced edema, 4 hrs. ([7]; Table 6, 100 mg/kg oral): 68.2 per cent | Inhibitory per cent, carrageenan-induced edema, 5 hrs. ([7]; Table 6, 100 mg/kg oral): 63.4 per cent | Inhibitory per cent, carrageenan-induced edema, 6 hrs. ([7]; Table 6, 100 mg/kg oral): 52.6 per cent

CCc1ccc(CC2CNC(=O)O2)cc1 (stereo not shown) [VII, 5-(p-ethylbenzyl)-2-oxazolidone]
responders at 500 mg/kg ([1]; Table 2, 500 mg/kg, oral, mice): 80% | responders at 500 mg/kg ([2]; Table 2, 500 mg/kg, oral, mice): 40% | responders at 500 mg/kg ([3]; Table 2, 500 mg/kg, oral, mice): 40% | responders at 500 mg/kg ([4]; Table 2, 500 mg/kg, oral, mice): 0% | responders at 500 mg/kg ([5]; Table 2, 500 mg/kg, oral, mice): 0% | responders at 500 mg/kg ([6]; Table 2, 500 mg/kg, oral, mice): 0%
